Test results reported in patent EP0238060B1, “Cephalosporin derivatives, processes for their preparation and antibacterial agents” (Banyu Pharmaceutical Co., Ltd., priority 1986, dated 1987).
Converted amounts (≈) assume the structure as drawn.

Legend:
Assay in all cases: In vitro antibacterial activity, agar plate dilution method (MIC)
[1] = tested on: Ps.cepacia 23; format: cell-based, Pseudomonas cepacia; conditions: Burkholderia cepacia; Ps.cepacia 23; Mueller Hinton agar, inoculum 10⁶ CFU/ml, 37°C, 16 hours; read-out: Minimum Inhibitory Concentration (MIC: µg/ml)
Protocol: (§1) The in vitro antibacterial activities of the compounds of the present invention against various microorganisms, were measured by the following agar plate dilution method. One platinum loopfull of each test microorganism incubated overnight in Mueller Hinton broth, was inoculated to Mueller Hinton agar (inoculum size: l0⁶ CFU/ml). Such culture media containing various antibiotics in various concentrations were prepared. After incubation at 37°C for l6 hours, the minimum inhibitory concentrations (MIC: µg/ml) were measured. As comparative compounds, Cefotaxime, Ceftazidime and the compounds of Reference Examples l to 4 were employed.

[2] = tested on: Ps.maltophilia GN 12873; format: cell-based, Pseudomonas maltophilia; conditions: Stenotrophomonas maltophilia, GN12873; Ps.maltophilia GN 12873 (β-Lactamase-producing strain); Mueller Hinton agar, inoculum 10⁶ CFU/ml, 37°C, 16 hours; read-out: Minimum Inhibitory Concentration (MIC: µg/ml)
Protocol: as §1

[3] = tested on: S.marcescens IAM 1184; format: cell-based; conditions: Serratia marcescens, IAM1184; S.marcescens IAM 1184; Mueller Hinton agar, inoculum 10⁶ CFU/ml, 37°C, 16 hours; read-out: Minimum Inhibitory Concentration (MIC: µg/ml)
Protocol: as §1

[4] = tested on: K.oxytoca GN10650; format: cell-based; conditions: Klebsiella oxytoca; K.oxytoca GN10650 (β-Lactamase-producing strain); Mueller Hinton agar, inoculum 10⁶ CFU/ml, 37°C, 16 hours; read-out: Minimum Inhibitory Concentration (MIC: µg/ml)
Protocol: as §1

[5] = tested on: E.coli NIHJ JC2; format: cell-based; conditions: Escherichia coli, NIHJJC2; E.coli NIHJ JC2; Mueller Hinton agar, inoculum 10⁶ CFU/ml, 37°C, 16 hours; read-out: Minimum Inhibitory Concentration (MIC: µg/ml)
Protocol: as §1

[6] = tested on: E.coli CSH2 (RK1); format: cell-based; conditions: Escherichia coli, 16 h, read-out: Minimum Inhibitory Concentration (MIC: µg/ml)
Protocol: as §1

[7] = tested on: Ps.aeruginosa AKR17; format: cell-based; conditions: Pseudomonas aeruginosa; Ps.aeruginosa AKR17; Mueller Hinton agar, inoculum 10⁶ CFU/ml, 37°C, 16 hours; read-out: Minimum Inhibitory Concentration (MIC: µg/ml)
Protocol: as §1

[8] = tested on: S.marcescens No. 16-2; format: cell-based; conditions: Serratia marcescens, NO.162; S.marcescens No. 16-2 (β-Lactamase-producing strain); Mueller Hinton agar, inoculum 10⁶ CFU/ml, 37°C, 16 hours; read-out: Minimum Inhibitory Concentration (MIC: µg/ml)
Protocol: as §1

[9] = tested on: C.freundii GN346/16; format: cell-based; conditions: Citrobacter freundii; C.freundii GN346/16; Mueller Hinton agar, inoculum 10⁶ CFU/ml, 37°C, 16 hours; read-out: Minimum Inhibitory Concentration (MIC: µg/ml)
Protocol: as §1

[10] = tested on: E.cloacae Nek 39; format: cell-based; conditions: Enterobacter cloacae, NEK39; E.cloacae Nek 39 (β-Lactamase-producing strain); Mueller Hinton agar, inoculum 10⁶ CFU/ml, 37°C, 16 hours; read-out: Minimum Inhibitory Concentration (MIC: µg/ml)
Protocol: as §1

[11] = tested on: K.pneumoniae No. 42; format: cell-based; conditions: Klebsiella pneumoniae; K.pneumoniae No. 42 (β-Lactamase-producing strain); Mueller Hinton agar, inoculum 10⁶ CFU/ml, 37°C, 16 hours; read-out: Minimum Inhibitory Concentration (MIC: µg/ml)
Protocol: as §1

[12] = tested on: Ps.aeruginosa IFO3445; format: cell-based; conditions: Pseudomonas aeruginosa; Ps.aeruginosa IFO3445; Mueller Hinton agar, inoculum 10⁶ CFU/ml, 37°C, 16 hours; read-out: Minimum Inhibitory Concentration (MIC: µg/ml)
Protocol: as §1

[13] = tested on: S.epidermidis IAM12012; format: cell-based; conditions: Staphylococcus epidermidis; S.epidermidis IAM12012; Mueller Hinton agar, inoculum 10⁶ CFU/ml, 37°C, 16 hours; read-out: Minimum Inhibitory Concentration (MIC: µg/ml)
Protocol: as §1

[14] = tested on: E.coli CSH(RE45); format: cell-based; conditions: Escherichia coli, 16 h, read-out: Minimum Inhibitory Concentration (MIC: µg/ml)
Protocol: as §1

[15] = tested on: K.pneumoniae PCI-602; format: cell-based; conditions: Klebsiella pneumoniae, PCI602; K.pneumoniae PCI-602; Mueller Hinton agar, inoculum 10⁶ CFU/ml, 37°C, 16 hours; read-out: Minimum Inhibitory Concentration (MIC: µg/ml)
Protocol: as §1

[16] = tested on: C.freundii GN346; format: cell-based; conditions: Citrobacter freundii; C.freundii GN346 (β-Lactamase-producing strain); Mueller Hinton agar, inoculum 10⁶ CFU/ml, 37°C, 16 hours; read-out: Minimum Inhibitory Concentration (MIC: µg/ml)
Protocol: as §1

[17] = tested on: S.aureus 209P NIHJ-JC1; format: cell-based; conditions: Staphylococcus aureus; S.aureus 209P NIHJ-JC1; Mueller Hinton agar, inoculum 10⁶ CFU/ml, 37°C, 16 hours; read-out: Minimum Inhibitory Concentration (MIC: µg/ml)
Protocol: as §1

[18] = tested on: S.aureus JS1; format: cell-based; conditions: Staphylococcus aureus; S.aureus JS1 (β-Lactamase-producing strain); Mueller Hinton agar, inoculum 10⁶ CFU/ml, 37°C, 16 hours; read-out: Minimum Inhibitory Concentration (MIC: µg/ml)
Protocol: as §1

[19] = tested on: P.vulgaris No. 33; format: cell-based; conditions: Proteus vulgaris; P.vulgaris No. 33 (β-Lactamase-producing strain); Mueller Hinton agar, inoculum 10⁶ CFU/ml, 37°C, 16 hours; read-out: Minimum Inhibitory Concentration (MIC: µg/ml)
Protocol: as §1

[20] = tested on: E.coli GN5482; format: cell-based; conditions: Escherichia coli; E.coli GN5482 (β-Lactamase-producing strain); Mueller Hinton agar, inoculum 10⁶ CFU/ml, 37°C, 16 hours; read-out: Minimum Inhibitory Concentration (MIC: µg/ml)
Protocol: as §1

[21] = tested on: P.vulgaris HX-19; format: cell-based; conditions: Proteus vulgaris, HX19; P.vulgaris HX-19; Mueller Hinton agar, inoculum 10⁶ CFU/ml, 37°C, 16 hours; read-out: Minimum Inhibitory Concentration (MIC: µg/ml)
Protocol: as §1

[22] = tested on: Ps.aeruginosa AK 109; format: cell-based; conditions: Pseudomonas aeruginosa, AK109; Ps.aeruginosa AK 109; Mueller Hinton agar, inoculum 10⁶ CFU/ml, 37°C, 16 hours; read-out: Minimum Inhibitory Concentration (MIC: µg/ml)
Protocol: as §1

[23] = tested on: M.luteus ATCC9341; format: cell-based; conditions: Micrococcus luteus; M.luteus ATCC9341; Mueller Hinton agar, inoculum 10⁶ CFU/ml, 37°C, 16 hours; read-out: Minimum Inhibitory Concentration (MIC: µg/ml)
Protocol: as §1

[24] = tested on: E.cloacae 963; format: cell-based; conditions: Enterobacter cloacae; E.cloacae 963; Mueller Hinton agar, inoculum 10⁶ CFU/ml, 37°C, 16 hours; read-out: Minimum Inhibitory Concentration (MIC: µg/ml)
Protocol: as §1

[25] = tested on: M.morganii GN5407; format: cell-based; conditions: Morganella morganii; M.morganii GN5407 (β-Lactamase-producing strain); Mueller Hinton agar, inoculum 10⁶ CFU/ml, 37°C, 16 hours; read-out: Minimum Inhibitory Concentration (MIC: µg/ml)
Protocol: as §1

[26] = tested on: S.aureus BB5703; format: cell-based; conditions: Staphylococcus aureus; S.aureus BB5703; Mueller Hinton agar, inoculum 10⁶ CFU/ml, 37°C, 16 hours; read-out: Minimum Inhibitory Concentration (MIC: µg/ml)
Protocol: as §1

[27] = tested on: A.calcoaceticus No. 4; format: cell-based; conditions: Acinetobacter calcoaceticus; A.calcoaceticus No. 4; Mueller Hinton agar, inoculum 10⁶ CFU/ml, 37°C, 16 hours; read-out: Minimum Inhibitory Concentration (MIC: µg/ml)
Protocol: as §1

SMILES | MIC [1] | MIC [2] | MIC [3] | MIC [4] | MIC [5] | MIC [6] | MIC [7] | MIC [8] | MIC [9] | MIC [10] | MIC [11] | MIC [12] | MIC [13] | MIC [14] | MIC [15] | MIC [16] | MIC [17] | MIC [18] | MIC [19] | MIC [20] | other results
CO/N=C(\C(=O)NC1C(=O)N2C(C(=O)[O-])=C(C[n+]3ccc4cc(O)c(O)cc4c3)CSC12)c1csc(N)n1 (stereo not drawn) [Ex. 1, 7-[2-(2-aminothiazol-4-yl)-2-methoxyiminoacetamido]-3-(6,7-dihydroxy-2-isoquinolinio)-methyl-3-cephem-4-carboxylate] | 0.78 µg/mL (≈ 1.4 µM) | > 100 µg/mL | 0.0125 µg/mL (≈ 0.0225 µM) | 0.78 µg/mL (≈ 1.4 µM) | 0.05 µg/mL (≈ 0.0898 µM) | < 0.006 µg/mL | 100 µg/mL (≈ 180 µM) | 3.12 µg/mL (≈ 5.61 µM) | 0.78 µg/mL (≈ 1.4 µM) | 0.1 µg/mL (≈ 0.18 µM) | 0.025 µg/mL (≈ 0.0449 µM) | 0.78 µg/mL (≈ 1.4 µM) | 0.78 µg/mL (≈ 1.4 µM) | 0.78 µg/mL (≈ 1.4 µM) | < 0.006 µg/mL | 25 µg/mL (≈ 44.9 µM) | 1.56 µg/mL (≈ 2.8 µM) | 25 µg/mL (≈ 44.9 µM) | 0.1 µg/mL (≈ 0.18 µM) | 0.39 µg/mL (≈ 0.701 µM) | MIC [21]: < 0.006 µg/mL; MIC [22]: 0.78 µg/mL (≈ 1.4 µM); MIC [23]: 0.1 µg/mL (≈ 0.18 µM); MIC [24]: 0.025 µg/mL (≈ 0.0449 µM); MIC [25]: 0.1 µg/mL (≈ 0.18 µM); MIC [26]: 3.12 µg/mL (≈ 5.61 µM); MIC [27]: 0.2 µg/mL (≈ 0.359 µM)
CO/N=C(\C(=O)N[C@@H]1C(=O)N2C(C(=O)O)=C(COC(C)=O)CS[C@H]12)c1csc(N)n1 [Cefotaxime, reference compound] | 6.25 µg/mL (≈ 13.7 µM) | > 100 µg/mL | 0.05 µg/mL (≈ 0.11 µM) | 0.78 µg/mL (≈ 1.71 µM) | 0.05 µg/mL (≈ 0.11 µM) | 0.05 µg/mL (≈ 0.11 µM) | > 100 µg/mL | 25 µg/mL (≈ 54.9 µM) | 0.1 µg/mL (≈ 0.22 µM) | 3.12 µg/mL (≈ 6.85 µM) | 0.05 µg/mL (≈ 0.11 µM) | 3.12 µg/mL (≈ 6.85 µM) | 0.39 µg/mL (≈ 0.856 µM) | 0.2 µg/mL (≈ 0.439 µM) | < 0.006 µg/mL | 25 µg/mL (≈ 54.9 µM) | 1.56 µg/mL (≈ 3.43 µM) | 25 µg/mL (≈ 54.9 µM) | 0.025 µg/mL (≈ 0.0549 µM) | 0.39 µg/mL (≈ 0.856 µM) | MIC [21]: < 0.006 µg/mL; MIC [22]: 12.5 µg/mL (≈ 27.4 µM); MIC [23]: 0.05 µg/mL (≈ 0.11 µM); MIC [24]: 0.1 µg/mL (≈ 0.22 µM); MIC [25]: 0.05 µg/mL (≈ 0.11 µM); MIC [26]: 3.12 µg/mL (≈ 6.85 µM); MIC [27]: 25 µg/mL (≈ 54.9 µM)
